One test deals with male NIH-Swiss mice. Put plainly: Forced-swim test in mice (mFST). It counts as in vivo, mouse. Conditions: for ED60: Mus musculus, immobility in last 4 min of 6 min; for Maximal Decrease (1 − compound/control) * 100%: immobility time. An excerpt: Forced-Swim Test in Mice (mFST)
mFST is an established in vivo assay for antidepressant activity (Li et al. J Pharmacol Exp Ther. 319(1):254-9, 2006.). […] The mFST was used to evaluate potential antidepressant-like activity of novel mGlu2/3 antagonists essentially as described in previously published methods (see for example, Li et al. J Pharmacol Exp Ther. 319(1):254-9, 2006.). Briefly, male NIH-Swiss mice (Harlan Sprague-Dawley, Indianapolis, Ind.) weighing between 25-30 g are used. Group housed animals are removed from the vivarium to the testing area in their own cages and allowed to adapt to the new environment for at least 1 hour before testing. Compounds where R^1 and R^2 are both hydrogen are dissolved in water with minimal NaOH added for dissolution and are administered i.p. Compounds where R^1 and/or R^2 are other than hydrogen are prepared on the day of use in 2.0-2.5% N-methyl-pyrrolidinone and then suspended in 1% HEC, 0.25% Tween 80, and 0.05% Dow antifoam, and administered orally. Mice are placed in a cylinder (diameter: 10 cm; height: 25 cm) filled with 6 cm of water (22-25° C.) for 6 min. The duration of immobility during the last 4 min. of the 6 min. period of the test was scored. A mouse is recorded as immobile when floating motionless or making only those movements necessary to keep its head above water.

The target of the next test is T1, human mGlu2 receptors (Homo sapiens, UniProt Q14416).
T1 construct: expressed in transfected cells; host or cells: AV12 cells, co-expressing rat EAAT1
T1 sequence (Q14416 19-872): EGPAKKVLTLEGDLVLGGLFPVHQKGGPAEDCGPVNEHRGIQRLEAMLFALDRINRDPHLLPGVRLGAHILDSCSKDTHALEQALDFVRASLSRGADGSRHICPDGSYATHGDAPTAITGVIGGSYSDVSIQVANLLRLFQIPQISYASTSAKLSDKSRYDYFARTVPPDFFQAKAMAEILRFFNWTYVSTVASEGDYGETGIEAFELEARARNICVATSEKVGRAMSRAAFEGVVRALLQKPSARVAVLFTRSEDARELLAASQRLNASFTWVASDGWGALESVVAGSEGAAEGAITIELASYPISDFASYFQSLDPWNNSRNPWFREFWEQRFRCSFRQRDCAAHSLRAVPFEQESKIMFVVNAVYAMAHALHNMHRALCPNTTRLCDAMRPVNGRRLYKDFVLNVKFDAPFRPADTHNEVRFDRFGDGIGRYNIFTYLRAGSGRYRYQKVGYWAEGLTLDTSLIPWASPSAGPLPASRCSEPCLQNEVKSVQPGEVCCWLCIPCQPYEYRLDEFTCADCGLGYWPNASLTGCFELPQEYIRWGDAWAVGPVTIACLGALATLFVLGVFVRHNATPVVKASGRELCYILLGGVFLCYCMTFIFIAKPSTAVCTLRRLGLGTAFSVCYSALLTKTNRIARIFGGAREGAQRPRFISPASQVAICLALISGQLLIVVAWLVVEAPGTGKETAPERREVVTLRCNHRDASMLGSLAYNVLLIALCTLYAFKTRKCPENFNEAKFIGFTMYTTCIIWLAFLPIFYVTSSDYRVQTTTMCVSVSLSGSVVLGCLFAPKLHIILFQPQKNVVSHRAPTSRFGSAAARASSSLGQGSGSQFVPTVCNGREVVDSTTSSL
Briefly: mGlu2 receptor cAMP antagonist assay. The format is cell-based. Conditions: reversal of DCG IV (EC90) inhibition of forskolin-stimulated cAMP; AV12 cells. As to the method: (§1) mGlu2 and mGlu3 Receptor cAMP Antagonist Assays
Antagonist activity is assayed in recombinant AV12 cells stably expressing human mGlu2 or mGlu3 receptors and the rat glutamate transporter EAAT1 (Excitatory Amino Acid Transporter 1). The cell lines are maintained by culturing in DMEM with high glucose and pyridoxine hydrochloride supplemented with 5% dialyzed fetal bovine serum (FBS), 1 mM sodium pyruvate, 1 mM HEPES and 1 mM L-glutamine; geneticin and hygromycin B are used as selection antibiotics.
Reversal of the inhibition of forskolin-stimulated cAMP production by test compounds is measured using homogeneous time resolved fluorescence technology (HTRF; Cisbio cat #62AM4PEB). The medium is removed and the cells are incubated with 100 μl cAMP stimulation buffer (STIM) for 30 minutes at 37° C. […] Cells are incubated at 37° C. for 20 minutes. To measure the cAMP levels, cAMP-d2 conjugate and anti cAMP-cryptate conjugate in lysis buffer are incubated with the treated cells at room temperature for 1 hour (mGlu2) or 1.5 hour (mGlu3). […] The raw data are converted to cAMP amount (pmole/well) using a cAMP standard curve generated for each experiment. Relative IC50 values are calculated from the top-bottom range of the concentration response curve using a four-parameter logistic curve fitting program (ActivityBase v5.3.1.22).

A further test deals with T2, human mGlu6 receptor (Homo sapiens, UniProt O15303).
T2 construct: expressed in transfected cells; host or cells: AV12 cells, co-expressing rat EAAT1
T2 sequence (O15303 25-877): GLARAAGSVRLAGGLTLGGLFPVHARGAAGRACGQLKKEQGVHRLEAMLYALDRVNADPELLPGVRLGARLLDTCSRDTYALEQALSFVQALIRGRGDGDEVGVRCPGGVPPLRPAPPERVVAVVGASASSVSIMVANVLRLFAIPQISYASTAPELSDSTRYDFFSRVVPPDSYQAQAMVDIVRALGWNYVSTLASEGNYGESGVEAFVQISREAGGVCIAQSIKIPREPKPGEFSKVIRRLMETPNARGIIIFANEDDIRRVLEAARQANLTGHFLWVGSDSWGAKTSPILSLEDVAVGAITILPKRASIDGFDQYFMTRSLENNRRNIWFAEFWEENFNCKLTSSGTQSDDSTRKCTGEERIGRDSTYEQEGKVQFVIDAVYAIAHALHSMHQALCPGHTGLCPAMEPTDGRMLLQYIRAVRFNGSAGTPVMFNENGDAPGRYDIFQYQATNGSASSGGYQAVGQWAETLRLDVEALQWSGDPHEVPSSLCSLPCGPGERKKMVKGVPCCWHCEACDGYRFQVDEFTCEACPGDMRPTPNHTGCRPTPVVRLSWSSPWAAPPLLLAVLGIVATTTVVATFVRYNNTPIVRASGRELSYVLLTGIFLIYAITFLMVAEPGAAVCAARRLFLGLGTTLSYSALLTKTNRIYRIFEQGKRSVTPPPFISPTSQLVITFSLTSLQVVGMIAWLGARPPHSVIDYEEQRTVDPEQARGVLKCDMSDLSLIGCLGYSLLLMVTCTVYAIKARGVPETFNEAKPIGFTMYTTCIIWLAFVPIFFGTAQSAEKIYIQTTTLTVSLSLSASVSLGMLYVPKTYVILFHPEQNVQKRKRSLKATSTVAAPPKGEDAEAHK
Put plainly: mGlu6 cAMP antagonist assay (reference agonist L-AP4). It counts as cell-based. Conditions: cAMP format. The source says: FLIPR and cAMP Assays for mGlu Receptor Selectivity
The relative antagonist potencies of the compounds of the invention for the other human mGlu receptors can be assessed with either a cAMP assay or fluorometric calcium response assay (see for example Fell et al., JPET (in press)). Briefly, individual AV12 cell lines containing the rat EAAT1 glutamate transporter and stably expressing the human mGlu1, 2, 3, 4, 5, 6, & 8 receptors are used for these studies. The mGlu1 and 5 receptors are […], so they naturally signal through phospholipase C, producing a calcium flux response which can be used to measure receptor activation using a Fluorometric Imaging Plate Reader (FLIPR, Molecular Devices). The cell lines expressing the mGlu2, 3, 4, and 8 receptor are designed to express the Gα15 subunit so that these Gi-coupled receptors will generate a calcium flux response similar to the mGlu1 and 5 receptor expressing cell lines. The mGlu6 receptor is tested in a cAMP format using methods analogous to those developed for mGlu2 and mGlu3 above. These cell lines are maintained as previously described except that amounts of L-glutamine and selection agents (geneticin, hygromycin B, zeocin, and blasticidin) may vary depending on the cell line. Confluent cultures are passaged biweekly.
Antagonist activity in mGlu6 cells is measured using cAMP in a method analogous to that described above for mGlu2 and mGlu3 activity, except that the reference agonist was L-AP4 (Tocris). […] Relative IC50 and EC50 values are calculated from the top-bottom range of the concentration response curve using a four-parameter logistic curve fitting program (ActivityBase v5.3.1.22).

A further test addresses T3, human mGlu3 receptors (Homo sapiens, UniProt Q14832).
T3 construct: expressed in transfected cells; host or cells: AV12 cells, co-expressing rat EAAT1
Put plainly: mGlu3 receptor cAMP antagonist assay. It counts as cell-based. Conditions: reversal of DCG IV (EC90) inhibition of forskolin-stimulated cAMP; AV12 cells. As to the method: as §1
Antagonist activity is assayed in recombinant AV12 cells stably expressing human mGlu2 or mGlu3 receptors and the rat glutamate transporter EAAT1 (Excitatory Amino Acid Transporter 1). The cell lines are maintained by culturing in DMEM with high glucose and pyridoxine hydrochloride supplemented with 5% dialyzed fetal bovine serum (FBS), 1 mM sodium pyruvate, 1 mM HEPES and 1 mM L-glutamine; geneticin and hygromycin B are used as selection antibiotics. Confluent cultures are grown at 37° C. in an atmosphere containing 6.5% CO2, and passaged biweekly. Cells are harvested using 0.25% trypsin, suspended in freeze media (FBS with 10% DMSO) at 10^7 cells/ml, and aliquots are stored in liquid nitrogen. Twenty-four hours before the assay, cells are plated at a density of 8,000-10,000 cells per well in a tissue culture treated, 96-well, half-area black plates (Costar 3875) in 50 μl of DMEM with high glucose and pyridoxine hydrochloride supplemented with 5% dialyzed FBS, 1 mM sodium pyruvate, 1 mM HEPES, 100 μg/ml ampicillin, and 250 μM (mGlu2) or 125 μM (mGlu3) of L-glutamine.
Reversal of the inhibition of forskolin-stimulated cAMP production by test compounds is measured using homogeneous time resolved fluorescence technology (HTRF; Cisbio cat #62AM4PEB). The medium is removed and the cells are incubated with 100 μl cAMP stimulation buffer (STIM) for 30 minutes at 37° C. (STIM buffer contains 500 ml HBSS, 1000 ml DPBS, 0.034% BSA, 1.67 mM HEPES and 500 μM IBMX (Sigma 15879).) Compounds are tested in 10-point concentration response curves using 3× serial dilution followed by further 40-fold dilution into STIM buffer. DCG IV (Tocris 0975) serves as the reference agonist. The final reaction mixture contains 1 μM (for mGlu2) or 3 μM (for mGlu3) of forskolin (Sigma F6886), DCG IV at its EC90, and up to 25 μM of test compound. Cells are incubated at 37° C. for 20 minutes. To measure the cAMP levels, cAMP-d2 conjugate and anti cAMP-cryptate conjugate in lysis buffer are incubated with the treated cells at room temperature for 1 hour (mGlu2) or 1.5 hour (mGlu3). The HTRF signal is detected using an EnVision plate reader (Perkin-Elmer) to calculate the ratio of fluorescence at […]. The raw data are converted to cAMP amount (pmole/well) using a cAMP standard curve generated for each experiment. Relative IC50 values are calculated from the top-bottom range of the concentration response curve using a four-parameter logistic curve fitting program (ActivityBase v5.3.1.22).

The next test deals with mice. Put plainly: mFST with SSRI (fluoxetine combination). It counts as in vivo, mouse. Conditions: Example 10 17 mg/kg p.o., fluoxetine 10 mg/kg i.p., alone or combined. As to the method:
mFST is an established in vivo assay for antidepressant activity (Li et al. J Pharmacol Exp Ther. 319(1):254-9, 2006.). […] J Pharmacol Exp Ther. 319(1):254-9, 2006.). Briefly, male NIH-Swiss mice (Harlan Sprague-Dawley, Indianapolis, Ind.) weighing between 25-30 g are used. Group housed animals are removed from the vivarium to the testing area in their own cages and allowed to adapt to the new environment for at least 1 hour before testing. Compounds where R^1 and R^2 are both hydrogen are dissolved in water with minimal NaOH added for dissolution and are administered i.p. […] Mice are placed in a cylinder (diameter: 10 cm; height: 25 cm) filled with 6 cm of water (22-25° C.) for 6 min. The duration of immobility during the last 4 min. of the 6 min. period of the test was scored. A mouse is recorded as immobile when floating motionless or making only those movements necessary to keep its head above water. The compounds of the invention may also be tested in combination with other compounds useful for the treatment of depressive disorders, as for example SSRI's, for their ability to enhance the antidepressant-like effects over that of either compound alone.

Molecules are shown by their SMILES. Bounds are passed on as bounds.

What is called IC50 is the concentration at which inhibition is half-maximal.

T3 sequence (Q14832 23-879): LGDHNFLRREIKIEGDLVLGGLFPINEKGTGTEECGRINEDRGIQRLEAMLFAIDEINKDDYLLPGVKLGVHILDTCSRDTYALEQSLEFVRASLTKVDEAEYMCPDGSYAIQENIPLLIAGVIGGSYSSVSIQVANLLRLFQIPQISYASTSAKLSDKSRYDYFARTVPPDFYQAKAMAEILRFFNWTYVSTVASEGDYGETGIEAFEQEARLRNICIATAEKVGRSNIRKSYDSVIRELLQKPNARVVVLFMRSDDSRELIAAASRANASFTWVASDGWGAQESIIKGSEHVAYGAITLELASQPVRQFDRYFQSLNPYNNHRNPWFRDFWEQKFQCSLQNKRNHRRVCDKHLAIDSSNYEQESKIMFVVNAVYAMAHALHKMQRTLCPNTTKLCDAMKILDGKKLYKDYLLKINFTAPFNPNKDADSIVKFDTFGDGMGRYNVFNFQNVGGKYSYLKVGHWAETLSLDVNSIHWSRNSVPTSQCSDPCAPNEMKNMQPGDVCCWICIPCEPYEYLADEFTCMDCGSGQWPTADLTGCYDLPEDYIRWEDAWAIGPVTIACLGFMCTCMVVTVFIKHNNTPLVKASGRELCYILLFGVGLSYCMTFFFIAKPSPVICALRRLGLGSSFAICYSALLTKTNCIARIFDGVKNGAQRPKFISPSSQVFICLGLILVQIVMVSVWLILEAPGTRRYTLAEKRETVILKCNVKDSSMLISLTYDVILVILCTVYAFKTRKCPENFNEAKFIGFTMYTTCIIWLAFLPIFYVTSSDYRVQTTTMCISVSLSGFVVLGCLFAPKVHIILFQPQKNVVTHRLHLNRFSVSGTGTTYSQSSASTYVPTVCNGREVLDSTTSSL

In turn, `Cl.N[C@]1(C(=O)OCOC(=O)C2CC2)[C@@H]2[C@@H](C(=O)OCOC(=O)C3CC3)[C@@H]2[C@H](O)[C@H]1OCc1ccc(Cl)c(Cl)c1` [Example 13, Bis{[(cyclopropylcarbonyl)oxy]methyl} (1S,2R,3S,4S,5R,6R)-2-amino-3-[(3,4-dichlorobenzyl)oxy]-4-hydroxybicyclo[3.1.0]hexane-2,6-dicarboxylate hydrochloride] displayed an ED60 with male NIH-Swiss mice (po) of 11.3 mg/kg. Moreover, in the test with male NIH-Swiss mice (p.o.), the “Maximal Decrease (1 − compound/control) * 100%” value is recorded as 62.8%.
Regarding `COC(=O)N[C@H]1[C@H]2[C@H](C(=O)O)[C@H]2[C@](N)(C(=O)O)[C@@H]1OCc1ccc(Cl)c(Cl)c1` [Example 5, (1S,2R,3R,4S,5R,6S)-2-Amino-3-[(3,4-dichlorobenzyl)oxy]-4-[(methoxycarbonyl)amino]bicyclo[3.1.0]hexane-2,6-dicarboxylic acid], the IC50 on human mGlu2 receptors stood at 16.8 ± 1.6 nM; at human mGlu6 receptor it was 1580 ± 141 nM; at human mGlu3 receptors it was 9.5 ± 4.6 nM. The same compound displayed an ED60 with male NIH-Swiss mice (ip) of 7.45 mg/kg. Also, the “Maximal Decrease (1 − compound/control) * 100%” value with male NIH-Swiss mice (i.p.) is on record as 56%.
With `CCOC(=O)OCOC(=O)[C@H]1[C@@H]2[C@H](O)[C@@H](OCc3ccc(Cl)c(Cl)c3)[C@@](N)(C(=O)OCOC(=O)OCC)[C@H]12.Cl` [Example 11, Bis{[(ethoxycarbonyl)oxy]methyl} (1S,2R,3S,4S,5R,6R)-2-amino-3-[(3,4-dichlorobenzyl)oxy]-4-hydroxybicyclo[3.1.0]hexane-2,6-dicarboxylate hydrochloride], the ED60 in the test on male NIH-Swiss mice (po) was determined as 51.5 mg/kg. Moreover, the “Maximal Decrease (1 − compound/control) * 100%” value with male NIH-Swiss mice (p.o.) stood at 32.9%.
Consider `CNCCC(Oc1ccc(C(F)(F)F)cc1)c1ccccc1` (stereo not drawn) [Fluoxetine, fluoxetine, reference compound], for which the “Maximal Decrease (1 − compound/control) * 100%” value with mice was 7.6%. In the test with mice (vehicle 174), the “Immobilization Time” value is 161 s.
For the compound `N[C@]1(C(=O)O)[C@@H]2[C@@H](C(=O)O)[C@@H]2[C@H](Sc2nccs2)[C@H]1OCc1ccc(Cl)c(Cl)c1` [Example 3, (1R,2R,3S,4S,5R,6R)-2-Amino-3-[(3,4-dichlorobenzyl)oxy]-4-(1,3-thiazol-2-ylsulfanyl)bicyclo[3.1.0]hexane-2,6-dicarboxylic acid], the results for the half-maximal inhibitory concentration (IC50) at human mGlu2 receptors, at human mGlu6 receptor and on human mGlu3 receptors were 25.4 ± 4.8 nM, 2480 ± 295 nM and 10.8 nM, respectively. Besides, the ED60 in the test with male NIH-Swiss mice (ip) was 8.2 mg/kg. In addition, the “Maximal Decrease (1 − compound/control) * 100%” value with male NIH-Swiss mice (i.p.) turned out to be 47%.
Turning to `Cl.N[C@]1(C(=O)O)[C@@H]2[C@@H](C(=O)O)[C@@H]2[C@H](Sc2ncc[nH]2)[C@H]1OCc1ccc(Cl)c(Cl)c1` [Example 8, (1R,2R,3S,4S,5R,6R)-2-Amino-3-[(3,4-dichlorobenzyl)oxy]-4-(1H-imidazol-2-ylsulfanyl)bicyclo[3.1.0]hexane-2,6-dicarboxylic acid hydrochloride], the ED60 with male NIH-Swiss mice (ip) amounted to 9.1 mg/kg. Further, the “Maximal Decrease (1 − compound/control) * 100%” value in the test on male NIH-Swiss mice (i.p.) was 41%. The figures for the half-inhibitory concentration (IC50) on human mGlu6 receptor and on human mGlu3 receptors were 2580 nM and 26 ± 0.5 nM, respectively.
`CC(C)C(=O)OCOC(=O)[C@H]1[C@@H]2[C@H](O)[C@@H](OCc3ccc(Cl)c(Cl)c3)[C@@](N)(C(=O)OCOC(=O)C(C)C)[C@H]12.Cl` [Example 12, Bis{[(2-methylpropanoyl)oxy]methyl} (1S,2R,3S,4S,5R,6R)-2-amino-3-[(3,4-dichlorobenzyl)oxy]-4-hydroxybicyclo[3.1.0]hexane-2,6-dicarboxylate hydrochloride] came in with an ED60 in the test with male NIH-Swiss mice (po) of over 28 mg/kg. In the test with male NIH-Swiss mice (p.o.), the “Maximal Decrease (1 − compound/control) * 100%” value is 7%.
`Cl.Cn1ncnc1S[C@H]1[C@H]2[C@H](C(=O)O)[C@H]2[C@](N)(C(=O)O)[C@@H]1OCc1ccc(Cl)c(Cl)c1` [Example 6, (1R,2R,3S,4S,5R,6R)-2-amino-3-[(3,4-dichlorobenzyl)oxy]-4-[(1-methyl-1H-1,2,4-triazol-5-yl)sulfanyl]bicyclo[3.1.0]hexane-2,6-dicarboxylic acid hydrochloride]: the half-maximal inhibitory concentration (IC50) was 18.6 ± 3.9 nM at human mGlu2 receptors, 1360 ± 433 nM at human mGlu6 receptor and 13.9 ± 2.4 nM at human mGlu3 receptors. In the test on male NIH-Swiss mice (ip), this compound showed an ED60 of 7.3 mg/kg. For the same compound, in the test with male NIH-Swiss mice (i.p.), the “Maximal Decrease (1 − compound/control) * 100%” value turned out to be 47%.

The record behind these values is patent publication US9056844B2, “4-substituted-3-benzyloxy-bicyclo[3.1.0]hexane compounds as mGluR 2/3 antagonists” (Eli Lilly and Company, priority 2010, dated 2015).
